# Experimental data published in patent US20240309090A1, “MODULATION OF ANDROGEN SIGNALING TO INNATE IMMUNE KILLING OF PROSTATE CANCER” (Brown University, priority 2023, published 2024).
# “Also recorded” adds a separate entry of the source.
# Assays:
# LNCaP cells = assay: Flow cytometry of HLA-E / PD-L1 surface expression on LNCaP; type: cell-based; settings: 48 h; for HLA-E surface expression / PD-L1 expression: Example 2, LNCaP; for HLA-E surface expression, mean fluorescence intensity (MFI): LNCaP, enza 15 μM, daro 20 μM
# Description: The effect of ARi on the NKG2A ligand, HLA-E, was investigated by flow cytometry on PCa cells treated with enza and daro.
# PCa cells were plated at a density of 3×10^5 cells per well of a 6-well plate and adhered overnight. […] After treatment, cells were trypsinized, stained, and incubated (Cell Staining Buffer SouthernBiotech #0225-01S) with the corresponding antibody for 45-60 min at 4° C. Viability dye was added with each run. NK-92 cells and patient-derived cells were stained similarly. Markers used for experiments included: Thermofisher HLA-E Monoclonal Antibody (3D12HLA-E), Alexa Fluor™ 488, eBioscience™, CD274 (PD-L1, B7-H1) Monoclonal Antibody (MIH1), eFluor™ 450, eBioscience™, Cell Signaling PD-1 (D4W2J) XPR Rabbit mAb, SYTOX™ Orange Dead Cell Stain, for flow cytometry, BioLegend APC anti-human CD159a (NKG2A) Antibody #375108, BioLegend APC anti-human CD69 Antibody #310909, BioLegend Alexa Fluor® 647 anti-human CD137 (4-1BB) [4B4-1] #309823. For staining of the patient-derived PBMCs and subsequent NK cell characterization, the following antibodies were used: BioLegend Anti-Perforin Mouse Monoclonal Antibody (PerCP Cy5.50, clone: dG9) #308113, BioLegend Anti-Granzyme B Mouse Monoclonal Antibody (FITC, clone: GB11) #515403, BioLegend Anti-CD56 Mouse Monoclonal Antibody (Alexa Fluor® 700, clone: 5.1H1) #362521, and BioLegend (PE anti-human CD45 Antibody) #304008.
# The effect of androgen pathway inhibitors in the expression of HLA-E, a negative and key negative modulator of NK cell function, was also performed using Flow Cytometry. PD-L1 expression levels were also measured. In advance, The NK cell immune checkpoint inhibitor monalizumab (targeting NKG2A and its ligand, HLA-E) was also combined with ARi.
# [1] = system: PCa cell lines (DU145, 22Rv1, LNCaP, PC3); assay: Western blot of apoptotic and antiapoptotic proteins in PCa cell lines; type: cell-based; settings: for expression of Bcl-XL: 22Rv1; for expression of c-IAP2: DU145 cells and LNCaP; for Survivin levels: LNCaP; for expression of MCL-1: any cell lines
# Description: We investigated the effects of ARi on PCa cells' expression of Bcl-2 proteins and cytokine secretion to assess a possible priming effect of treatment, making these cells susceptible to NK cell killing. Enzalutamide (5, 10, and 15 μM) and darolutamide (10, 20 μM) reduced the expression of the X-linked inhibitor of apoptosis (XIAP) in DU145, 22Rv1, and LNCaP cell lines (FIG. 14A-B). Western Blot analysis of apoptotic and antiapoptotic proteins on the PCa cell lines with darolutamide (10 and 20 μM) and enzalutamide ([…]) for 48 h. Treatment with ARi on the PCa cell lines evidenced changes in both pro and antiapoptotic proteins, irrespective of ARi sensitivity. The changes in protein expression were not similar in the PCa cell lines and cannot explain a single mechanism of tumor cell priming for NK cell killing.
# Anti-apoptotic proteins and androgen receptor expression in prostate cancer cell lines and immune cells (NK-92) were examined using a western blot. A total of 1×10^5 cells were plated and incubated in a 6 or 12-well plate ([…] 229111 and 229105) for 24 hours to allow the cells to adhere (tumor cells). Treatment conditions were added after cell adhesion or in conjunction with NK cells when these were analyzed. Cells were harvested and lysed using RIPA buffer containing protease inhibitor (Cell Signaling Technology 9806S) and phosphatase inhibitor (PHOSS-RO Roche 4906845001). Denaturing sample buffer was added, and samples were boiled at 95° C. for 10 minutes and an equal amount of protein lysate (10-20 ug) was electrophoresed through 4-12% SDS-PAGE gels (Invitrogen) and then transferred to PVDF membranes. The membrane was blocked with 5% milk in 1×TTBS and incubated overnight with the appropriate primary antibody (Cell Signaling c-IAP2 58C7 Rabbit mAb #3130; Cell Signaling XIAP Antibody #2042; Cell Signaling Mcl-1 (D2W9E) Rabbit mAb #94296; Cell Signaling Survivin (71G4B7) Rabbit mAb; Cell Signaling Ran Antibody #4462; Cell Signaling PARP 9542T mAb; Cell Signaling Bcl-2 Antibody #2876; Cell Signaling Bcl-xL (54H6) Rabbit mAb; Sigma Aldrich Monoclonal Anti-B-Actin antibody #A5441; Cell Signaling Androgen Receptor (E3S4N) Rabbit mAb (Carboxy-terminal Antigen) #70317). The primary antibody membranes were incubated in the appropriate HRP-conjugated secondary antibody (either mouse, Thermo Scientific #31430, or rabbit, Thermo Scientific #31460) for two hours. The levels of antibody binding were detected using ECL western blotting detection reagent and the Syngene imaging system.
# [2] = DU145, 22Rv1, LNCaP, enzalutamide 5, 10, 15 μM, darolutamide 10, 20 μM, 48 h
smiles,measurement,setting,value
CC(O)c1cc(C(=O)N[C@@H](C)Cn2ccc(-c3ccc(C#N)c(Cl)c3)n2)n[nH]1 (stereo partly shown) [darolutamide],HLA-E surface expression,LNCaP cells,0.8%
same,PD-L1 expression,LNCaP cells,increase
same,"HLA-E surface expression, mean fluorescence intensity (MFI)",LNCaP cells,39.47±3.39×10^3
same,expression of Bcl-XL,[1],reduced
same,expression of Bcl-XL,[1]; listed as Darolutamide,lower levels
same,expression of XIAP,[1]; [2],reduced; also recorded: more pronounced
same,expression of XIAP,"[1]; DU145, 22Rv1, LNCaP, enzalutamide 5, 10, 15 μM, darolutamide 10, 20 μM, 48 h, listed as Darolutamide",reduced levels
same,expression of c-IAP2,[1],reduced
same,expression of c-IAP2,[1]; listed as Darolutamide,reduced levels
same,Survivin levels,[1],decreased
same,Survivin levels,[1]; listed as Darolutamide,lower levels
same,expression of XIAP,[1]; PC3,did not change
same,expression of MCL-1,[1],no significant change
CNC(=O)c1ccc(N2C(=S)N(c3ccc(C#N)c(C(F)(F)F)c3)C(=O)C2(C)C)cc1F [enzalutamide],HLA-E surface expression,LNCaP cells,1.1%
same,PD-L1 expression,LNCaP cells,increase
same,"HLA-E surface expression, mean fluorescence intensity (MFI)",LNCaP cells,37.38±1.7×10^3
same,expression of Bcl-XL,[1],reduced
same,expression of Bcl-XL,[1]; listed as Enzalutamide,lower levels
same,expression of XIAP,[1]; [2],reduced levels
same,expression of c-IAP2,[1],reduced
same,expression of c-IAP2,[1]; listed as Enzalutamide,reduced levels
same,Survivin levels,[1],decreased
same,Survivin levels,[1]; listed as Enzalutamide,lower levels
same,expression of XIAP,[1]; PC3,did not change
same,expression of MCL-1,[1],no significant change
